From US8217055B2, “Pyrido-pyrazine derivatives useful as herbicidal compounds” (Syngenta Crop Protection LLC, priority 2006, dated 2012)

Columns and labels:
Assay type in all cases: in vivo
Amaranthus retroflexus [1] = experiment: Example B1 herbicidal action, post-emergence, seed trays in climatic chamber (score 10=total damage to plant, 0=no damage to plant); details: Application post-emergence, 1000 g/ha, evaluated after 9 days
Procedure: (§1) Seeds of a variety of test species were sown in sterilised standard soil in seed trays each having 96 cells. After cultivation for 8 to 9 days cultivation (post-emergence) under controlled conditions in a climatic chamber (cultivation at 23/17° C., day/night; 13 hours light; 50-60% humidity), the plants were treated with an aqueous spray solution of 1000 mg/l of the active ingredient dissolved in 10% DMSO (dimethyl sulfoxide, CAS RN 67-68-5) as a solvent, equivalent to 1000 g/ha. The plants were grown in the climatic chamber after application at (24/19° C., day/night; 13 hours light; 50-60% humidity) and watered twice daily. After 9 days until the test was evaluated (10=total damage to plant, 0=no damage to plant)

Nasturtium officinale = experiment: as above; details: Application post-emergence, 1000 g/ha, evaluated after 9 days
Procedure: as §1

Stellaria media = experiment: as above; details: Application post-emergence, 1000 g/ha, evaluated after 9 days
Procedure: as §1

Solanum nigrum [2] = experiment: as above; details: Application post-emergence, 1000 g/ha, evaluated after 9 days
Procedure: as §1

Amaranthus retroflexus [3] = experiment: Example B2 herbicidal action, post-emergence, pots in glasshouse, evaluated after 13 days (10=total damage to plant; 0=no damage to plant); details: rate 1000 g/ha
Procedure: (§2) Seeds of a variety of test species were sown in standard soil in pots. After 8 days cultivation (post-emergence) under controlled conditions in a glasshouse (at 24/16° C., day/night; 14 hours light; 65% humidity), the plants were sprayed with an aqueous spray solution derived from the formulation of the technical active ingredient in acetone/water (50:50) solution containing 0.5% Tween 20 (polyoxyethelyene sorbitan monolaurate, CAS RN 9005-64-5). The test plants were then grown in a glasshouse under controlled conditions in a glasshouse (at 24/16° C., day/night; 14 hours light; 65% humidity) and watered twice daily. After 13 days, the test was evaluated (10=total damage to plant; 0=no damage to plant).

Solanum nigrum [4] = experiment: as above; details: rate 1000 g/ha
Procedure: as §2

Echinochloa crus-galli = experiment: as above; details: rate 1000 g/ha
Procedure: as §2

Setaria faberi = experiment: as above; details: rate 1000 g/ha
Procedure: as §2

Ipomea hederaceae = experiment: as above; details: rate 1000 g/ha
Procedure: as §2

SMILES	AMARE (damage to plant) (Amaranthus retroflexus [1])	NAAOF (damage to plant) (Nasturtium officinale)	STEME (damage to plant) (Stellaria media)	SOLNI (damage to plant) (Solanum nigrum [2])	AMARE damage score (10=total damage to plant; 0=no damage to plant) (Amaranthus retroflexus [3])	SOLNI damage score (10=total damage to plant; 0=no damage to plant) (Solanum nigrum [4])	ECHCG damage score (10=total damage to plant; 0=no damage to plant) (Echinochloa crus-galli)	SETFA damage score (10=total damage to plant; 0=no damage to plant) (Setaria faberi)	IPOHE damage score (10=total damage to plant; 0=no damage to plant) (Ipomea hederaceae)
CC(C)(C)C(=O)Oc1c(-c2ccccc2OC(F)(F)F)c(=O)n(CC(F)F)c2nccnc12 [A1]	0	8	7	6	–	–	–	–	–
CC(C)(C)C(=O)Oc1c(-c2c(F)ccc(F)c2Cl)c(=O)n(CC(F)F)c2nccnc12 [A2, 2,2-dimethyl-propionic acid 7-(2-chloro-3,6-difluoro-phenyl)-5-(2,2-difluoro-ethyl)-6-oxo-5,6-dihydro-pyrido[2,3-b]pyrazin-8-yl ester]	4	9	9	6	–	–	–	–	–
CC(C)C(=O)Oc1c(-c2c(F)ccc(F)c2Cl)c(=O)n(CC(F)F)c2nccnc12 [A3]	6	7	9	5	–	–	–	–	–
CCc1cc(C)cc(CC)c1-c1c(O)c2nccnc2n(CC(F)F)c1=O [B4]	–	–	–	–	7	10	8	9	10
Cc1cc(C)c(-c2c(O)c3nccnc3n(CC(F)F)c2=O)c(C)c1 [B5]	–	–	–	–	7	10	8	8	10
O=c1c(-c2c(F)ccc(Br)c2Cl)c(O)c2nccnc2n1CC(F)F [B6]	–	–	–	–	10	10	8	8	10
O=c1c(-c2cc(F)ccc2Cl)c(O)c2nccnc2n1CC(F)F [B7]	–	–	–	–	10	9	7	7	9
COc1ccc(OC(F)(F)F)cc1-c1c(O)c2nccnc2n(CC(F)F)c1=O [B8]	–	–	–	–	10	9	9	9	9
O=c1c(-c2c(F)ccc([N+](=O)[O-])c2Cl)c(O)c2nccnc2n1CC(F)F [B9]	–	–	–	–	9	9	8	7	8
O=c1c(-c2cc(Cl)ccc2C(F)(F)F)c(O)c2nccnc2n1CC(F)F [B10]	–	–	–	–	10	10	9	9	10
O=c1c(-c2c(Cl)ccc(Cl)c2Cl)c(O)c2nccnc2n1CC(F)F [B11, 5-(2,2-difluoro-ethyl)-8-hydroxy-7-(2,3,6-trichloro-phenyl)-5H-pyrido[2,3-b]pyrazin-6-one]	–	–	–	–	10	10	8	9	10
COc1ccc(Br)cc1-c1c(O)c2nccnc2n(CC(F)F)c1=O [B12]	–	–	–	–	9	9	6	6	6
O=c1c(-c2c(Cl)cccc2C(F)(F)F)c(O)c2nccnc2n1CC(F)F [B13]	–	–	–	–	10	10	9	9	10
O=c1c(-c2c(F)ccc(Cl)c2Cl)c(O)c2nccnc2n1CC(F)F [B14]	–	–	–	–	10	10	6	7	10
CC(C)(C)C(=O)Oc1c(-c2c(F)ccc(F)c2Cl)c(=O)n(CC(F)(F)F)c2nccnc12 [C8, 2,2-dimethyl-propionic acid 7-(2-chloro-3,6-difluoro-phenyl)-5-(2,2,2-trifluoro-ethyl)-6-oxo-5,6-dihydro-pyrido[2,3-b]pyrazin-8-yl ester]	–	–	–	–	10	10	1	4	10
CC(C)(C)C(=O)Oc1c(-c2c(F)ccc(F)c2Cl)c(=O)n(CCF)c2nccnc12 [C9, 2,2-dimethyl-propionic acid 7-(2-chloro-3,6-difluoro-phenyl)-5-(2-fluoro-ethyl)-6-oxo-5,6-dihydro-pyrido[2,3-b]pyrazin-8-yl ester]	–	–	–	–	7	4	0	0	5
CC(C)C(=O)Oc1c(-c2c(F)ccc(F)c2Cl)c(=O)n(CC(F)(F)F)c2nccnc12 [C10]	–	–	–	–	10	10	3	6	10
CC(C)(C)C(=O)Oc1c(-c2c(F)ccc(F)c2Cl)c(=O)n(CCC=C(F)F)c2nccnc12 [C11]	–	–	–	–	5	2	0	0	0
CC(C)(C)C(=O)Oc1c(-c2c(F)ccc(F)c2Cl)c(=O)n(CCC(F)=C(F)F)c2nccnc12 [C12]	–	–	–	–	6	3	0	0	1
CC(C)(C)C(=O)Oc1c(-c2c(F)ccc(F)c2Cl)c(=O)n(CC=C(Cl)Cl)c2nccnc12 [C13]	–	–	–	–	0	3	0	0	1
CC(C)C(=O)Oc1c(-c2c(F)ccc(F)c2Cl)c(=O)n(CC=C(Cl)Cl)c2nccnc12 [C14]	–	–	–	–	8	8	0	0	1
O=C1c2nccnc2N(CC(F)(F)F)C(=O)C1c1c(F)ccc(F)c1Cl (stereo not drawn) [D1]	–	–	–	–	10	10	5	6	10
O=C1c2nccnc2N(CCF)C(=O)C1c1c(F)ccc(F)c1Cl (stereo not drawn) [D2]	–	–	–	–	6	7	1	2	5
O=C1c2nccnc2N(CC=C(Cl)Cl)C(=O)C1c1c(F)ccc(F)c1Cl (stereo not drawn) [D3]	–	–	–	–	9	7	0	3	7
